Test results published in ChEMBL document CHEMBL3217673, “Synthesis of cyanine dyes and investigation of their in vitro antiprotozoal activities” (Medchemcomm, 2012).
pIC50: −log10 of the molar value.

What was measured:
[1] = Selectivity index, ratio of IC50 for rat L6 cells to IC50 for chloroquine and pyrimethamine-resistant Plasmodium falciparum K1; type: toxicity, cell-based; settings: read-out: Ratio IC50
L6 = test: Cytotoxicity against rat L6 cells; type: cell-based
[2] = Selectivity index, ratio of IC50 for rat L6 cells to IC50 for Trypanosoma brucei rhodesiense STIB900; type: toxicity, cell-based; settings: read-out: Ratio IC50
Leishmania donovani = test: Antiprotozoal activity against Leishmania donovani MHOMET-67/L82; type: functional, organism-based
Trypanosoma cruzi = test: Antiprotozoal activity against Trypanosoma cruzi Tulahuen C2C4; type: functional, organism-based
[3] = system: Trypanosoma brucei rhodesiense; test: Antiprotozoal activity against Trypanosoma brucei rhodesiense STIB900; type: functional, organism-based
Plasmodium falciparum = test: Antiprotozoal activity against chloroquine and pyrimethamine-resistant Plasmodium falciparum K1; type: functional, organism-based
[4] = Selectivity index, ratio of IC50 for rat L6 cells to IC50 for Trypanosoma cruzi Tulahuen C2C4; type: toxicity, cell-based; settings: read-out: Ratio IC50
[5] = Selectivity index, ratio of IC50 for rat L6 cells to IC50 for Leishmania donovani MHOMET-67/L82; type: toxicity, cell-based; settings: read-out: Ratio IC50

SMILES	selectivity ratio [1]	pIC50 (L6)	selectivity ratio [2]	pIC50 (Leishmania donovani)	pIC50 (Trypanosoma cruzi)	pIC50 [3]	pIC50 (Plasmodium falciparum)	selectivity ratio [4]	selectivity ratio [5]
CN1/C(=C/C=C/c2oc3ccccc3[n+]2C)Sc2ccc(Cl)cc21	178	5.64	8.6	6.92	6.45	6.58	7.89	6.4	19
CN1/C(=C/C=C/c2oc3ccc(Cl)cc3[n+]2C)Sc2ccc(Cl)cc21	141	5.53	23.1	7.07	5.54	6.89	7.68	1	35.3
CCN1/C(=C/C=C/c2oc3ccc(C)cc3[n+]2C)Sc2ccc(F)cc21	66	6.18	2.3	7.82	7.57	6.55	8.00	24	44
Cc1ccc2oc(/C=C/C=C3\Sc4ccc(F)cc4N3C)[n+](C)c2c1	145	5.83	8.3	7.68	8.10	6.74	8.00	194	72.6
CCN1/C(=C/C=C/c2oc3ccc(Cl)cc3[n+]2C)Sc2ccc(F)cc21	218	5.51	3.6	6.97	6.07	6.07	7.85	3.6	29.1
CN1/C(=C/C=C/c2oc3ccccc3[n+]2C)Sc2ccc(F)cc21	201	5.97	1.2	7.17	6.73	6.06	8.30	5.7	16.1
CCN1/C(=C/C=C/c2oc3ccccc3[n+]2C)Sc2ccc(F)cc21	586	5.82	1.8	7.27	6.58	6.08	8.52	5.7	27.9
CN1/C(=C/C=C/c2sc3ccccc3[n+]2C)Sc2ccccc21	126	6.47	2.9	8.30	8.30	6.94	8.52	63	63
CN1/C(=C/C=C/c2sc3ccccc3[n+]2C)Sc2ccc(Cl)cc21	45	6.48	5.2	7.19	8.15	7.19	8.15	45	5.2
CN1/C(=C/C=C/c2sc3ccc(Cl)cc3[n+]2C)Sc2ccc(Cl)cc21	477	5.97	59.6	8.05	5.15	7.74	8.70	0.2	119
CN1/C(=C/C=C/c2sc3ccc(F)cc3[n+]2C)Sc2ccc(F)cc21	477	6.16	2.7	7.70	5.54	6.58	8.70	0.2	35.8
CCN1/C(=C/C=C/c2sc3ccc(F)cc3[n+]2CC)Sc2ccc(F)cc21	371	6.07	1.1	7.55	5.93	6.11	8.70	0.7	30.9
Cn1/c(=N/C=C/c2sc3ccccc3[n+]2C)sc2ccccc21	340	5.56	128	7.96	7.80	7.68	8.10	170	255
Cn1/c(=N/C=C/c2sc3ccc(Cl)cc3[n+]2C)sc2ccccc21	132	6.19	66.3	8.15	6.29	8.00	8.30	1.3	88.3
Cn1/c(=N/C=C/c2sc3ccc(F)cc3[n+]2C)sc2ccccc21	153	5.23	15.8	7.51	6.19	6.43	7.42	9	191
Cn1/c(=N\N/C=C/c2sc3ccccc3[n+]2C)sc2ccccc21	3	4.68	5.5	4.88	4.91	5.42	5.15	1.7	1.6
Cn1/c(=N\N/C=C/c2sc3ccc(Cl)cc3[n+]2C)sc2ccccc21	4.2	4.97	3.6	5.08	4.94	5.53	5.59	1	1.3
Cn1/c(=N\N/C=C/c2sc3ccc(F)cc3[n+]2C)sc2ccccc21	2.5	4.81	3.5	4.99	4.93	5.35	5.21	1.3	1.5
CN1/C(=C/C=C/C=C/c2sc3ccccc3[n+]2C)Sc2ccccc21	13.5	5.75	137	6.85	7.22	7.89	6.88	29.9	12.7
CN1/C(=C/C=C/C=C/c2sc3ccc(Cl)cc3[n+]2C)Sc2ccc(Cl)cc21	13.9	6.06	106	7.12	5.58	8.10	7.20	0.3	11.8
CN1/C(=C/C=C/C=C/c2sc3ccc(F)cc3[n+]2C)Sc2ccc(F)cc21	9.2	5.68	1190	6.73	5.71	8.70	6.64	1.1	11.1
